According to US7897598B2, “Inhibitors of the anandamide transporter” (priority 1998, dated 2011):
“And” between values parts separate entries of the source, which are not always exact repeats. Equal entries are not always repeated. Where two headings read alike, the source gives them in different places.

Key:
anandamide transporter [1] = system: anandamide transporter
[2] = system: adenylyl cyclase activity; experiment: cAMP concentrations (adenylyl cyclase activity) in forskolin-stimulated cortical neurons; format: cell-based, rat
anandamide transporter [3] = experiment: [3H]anandamide transport assay, inhibition in astrocytoma cells; details: for IC50: read-out: IC50, [3H]anandamide accumulation
CB1 receptors = CB1 receptors (Homo sapiens, UniProt P21554); experiment: Binding to CB1 receptors
male Swiss mice = details: mouse, in vivo
anandamide transporter [4] = experiment: [3H]anandamide accumulation in cortical astrocytes in culture; format: cell-based, rat
anandamide transporter [5] = experiment: Transport (translocation) of radioactively labeled substrates into astrocytoma cells; format: cell-based, human; details: radioactively labeled compound, FIG. 4 and FIG. 5
anandamide transporter [6] = experiment: [3H]anandamide accumulation in neurons; format: cell-based, rat
[7] = target: rat cerebral membranes ([3H]WIN-55212-2 binding) (Rattus norvegicus, UniProt P20272); experiment: Binding of [3H]WIN-55212-2 to rat cerebral membranes
[8] = target: T1, fatty acid amide hydrolase (FAAH) (Rattus norvegicus, UniProt P97612); experiment: FAAH activity in brain microsomes; format: biochemical
T1 construct: from tissue; host or cells: brain microsomes
T1 sequence (P97612 1-579): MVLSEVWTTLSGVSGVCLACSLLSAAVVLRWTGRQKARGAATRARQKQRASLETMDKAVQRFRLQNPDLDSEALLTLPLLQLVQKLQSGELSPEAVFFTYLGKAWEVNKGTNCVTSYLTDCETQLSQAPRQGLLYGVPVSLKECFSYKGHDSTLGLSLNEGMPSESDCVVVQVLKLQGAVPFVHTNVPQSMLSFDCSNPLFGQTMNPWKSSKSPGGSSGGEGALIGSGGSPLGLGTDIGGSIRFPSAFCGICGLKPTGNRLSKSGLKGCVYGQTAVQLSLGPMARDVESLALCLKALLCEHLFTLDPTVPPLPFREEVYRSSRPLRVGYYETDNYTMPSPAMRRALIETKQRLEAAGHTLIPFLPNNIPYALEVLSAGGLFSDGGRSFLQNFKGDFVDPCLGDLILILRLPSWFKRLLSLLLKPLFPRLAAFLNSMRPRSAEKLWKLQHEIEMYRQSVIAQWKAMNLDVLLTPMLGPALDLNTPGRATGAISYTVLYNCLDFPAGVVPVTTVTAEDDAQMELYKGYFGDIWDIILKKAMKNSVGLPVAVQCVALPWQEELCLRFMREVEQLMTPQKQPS

Chain of rat cerebral membranes ([3H]WIN-55212-2 binding) (P20272 whole entry): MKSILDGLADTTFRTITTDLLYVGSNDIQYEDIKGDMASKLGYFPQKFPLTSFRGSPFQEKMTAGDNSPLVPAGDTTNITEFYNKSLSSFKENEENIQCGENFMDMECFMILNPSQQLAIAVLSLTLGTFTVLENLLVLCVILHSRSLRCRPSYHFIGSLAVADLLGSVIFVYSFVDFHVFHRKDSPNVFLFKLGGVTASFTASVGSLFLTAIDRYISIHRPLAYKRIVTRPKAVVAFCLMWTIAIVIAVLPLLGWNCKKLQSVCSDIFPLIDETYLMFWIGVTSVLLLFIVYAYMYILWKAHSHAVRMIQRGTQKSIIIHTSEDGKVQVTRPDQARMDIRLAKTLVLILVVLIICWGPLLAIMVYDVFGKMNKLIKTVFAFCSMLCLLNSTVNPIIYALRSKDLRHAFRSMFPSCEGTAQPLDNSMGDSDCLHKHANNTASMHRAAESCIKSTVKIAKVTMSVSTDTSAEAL
Chain of CB1 receptors (P21554 whole entry): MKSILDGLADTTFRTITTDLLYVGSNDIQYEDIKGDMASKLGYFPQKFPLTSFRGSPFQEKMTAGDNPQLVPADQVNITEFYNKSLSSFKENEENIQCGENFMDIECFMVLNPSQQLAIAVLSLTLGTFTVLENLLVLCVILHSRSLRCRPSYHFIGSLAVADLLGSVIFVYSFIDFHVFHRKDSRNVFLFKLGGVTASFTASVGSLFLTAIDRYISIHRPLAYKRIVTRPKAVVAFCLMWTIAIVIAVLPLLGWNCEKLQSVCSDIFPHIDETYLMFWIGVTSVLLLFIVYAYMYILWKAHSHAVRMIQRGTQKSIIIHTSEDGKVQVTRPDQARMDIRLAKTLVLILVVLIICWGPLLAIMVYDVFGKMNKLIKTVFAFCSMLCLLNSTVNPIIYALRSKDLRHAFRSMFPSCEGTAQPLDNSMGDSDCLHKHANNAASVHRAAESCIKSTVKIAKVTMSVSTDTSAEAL

Compound: CCCCC/C=C\C/C=C\C/C=C\CCCCCCC(=O)NCCO
- IC50 (anandamide transporter [1]): 13 ± 3.6 µM

Compound: CCCCCCCC/C=C\CCCCCCCCCC(=O)NCCO
- IC50 (anandamide transporter [1]): 14.1 ± 1.2 µM

Compound: CCCCCC=CCC=CCC=CCC=CCCCC(=O)NCC
- IC50 (anandamide transporter [1]): 48.5 ± 7.3 µM

Compound: CCCCCC=CCC=CCC=CCC=CCCCC(N)=O
- IC50 (anandamide transporter [1]): 9 ± 2 µM

Compound: CCCCCC=CCC=CCC=CCC=CCCCC(=O)OC(CO)CO
- IC50 (anandamide transporter [1]): 18.5 ± 0.7 µM

Compound: CCCCCC=CCC=CCC=CCC=CCCCC(=O)OCC(O)CO (centres unmarked)
- IC50 (anandamide transporter [1]): 48.5 ± 8.1 µM

Compound: CCCCCC=CCC=CCC=CCC=CCCCC(=O)N1CCOCC1
- IC50 (anandamide transporter [1]): 25 µM

Compound: CCCCCC=CCC=CCC=CCC=CCCCC(=O)N1CCC(O)CC1
- IC50 (anandamide transporter [1]): 10 ± 0.2 µM

Compound: CCCCCC=CCC=CCC=CCC=CCCCC(=O)N1CCCC(O)C1 (centres unmarked)
- IC50 (anandamide transporter [1]): 15 µM

Compound: CCCCCC=CCC=CCC=CCC=CCCCC(=O)N1CCC(O)C1 (centres unmarked)
- IC50 (anandamide transporter [1]): 15.3 ± 3 µM

Compound: CCCCCC=CCC=CCC=CCC=CCCC(C)(C)C(=O)NCCO
- IC50 (anandamide transporter [1]): 7.6 ± 1.2 µM

Compound: CCCCC/C=C\C/C=C\C/C=C\C/C=C\CCCC(=O)Nc1cccc(O)c1 [AM403, N-(3-hydroxyphenyl)-arachidonamide]
- cAMP, % of forskolin alone [2]: 92.4±2.3%
- enhancement of the anandamide response on cAMP (in words) [2]: less effective
- times less effective than N-(4-hydroxyphenyl)-arachidonamide (anandamide transporter [3]; human astrocytoma cells, ratio of IC50): 10 times
- IC50 (anandamide transporter [3]; human astrocytoma cells): 21.3 ± 3.4 µM

Compound: CCCCC/C=C\C/C=C\C/C=C\C/C=C\CCCC(=O)Nc1ccc(O)cc1 [AM404, N-(4-hydroxyphenyl)-arachidonamide]
- cAMP, % of forskolin alone [2]: 89.8±2.6% and 84.4±4.9%
- decrease of anandamide threshold, factor [2]: 1.100
- effect on cAMP concentrations when applied alone [2]: did not reduce cAMP concentrations
- enhancement of the anandamide response on cAMP (in words) [2]: almost maximal effect
- increase of anandamide potency, factor [2]: 10
- Ki (CB1 receptors): 1.8 µM
- antinociceptive effect alone (in words) (male Swiss mice): no antinociceptive effect
- effect on anandamide-induced analgesia (in words) (male Swiss mice): significantly enhanced and prolonged
- competition with [3H]anandamide for transport / uptake inhibition (in words) (anandamide transporter [3]): the most potent competitor in our series
- IC50 (anandamide transporter [3]; human astrocytoma cells): 2.2 ± 0.2 µM

Compound: CCCCC[C@H](O)/C=C/[C@H]1[C@H](O)CC(=O)[C@@H]1C/C=C\CCCC(=O)O [PGE2, prostaglandin E2]
- effect on [3H]anandamide accumulation (in words) (anandamide transporter [4]): inability

Compound: Cc1c(C(=O)c2cccc3ccccc23)c2cccc3c2n1[C@H](CN1CCOCC1)CO3 [WIN-55212-2, reference compound]
- effect on [3H]anandamide accumulation (in words) (anandamide transporter [4]): no effect
- cAMP, % of forskolin alone [2]: 96.7±2.5%

Compound: CCCCC/C=C\C/C=C\C/C=C\C/C=C\CCCC(=O)NCCO [anandamide, Arachidonyl ethanolamide]
- latency to jump (male Swiss mice): 30.7 ± 0.8 s
- time after injection at which analgesia disappeared (male Swiss mice): 60 min
- IC50 (anandamide transporter [1]): 15.1 ± 3 µM

Compound: CCCCC/C=C\C/C=C\C/C=C\C/C=C\CCCC(N)=O [arachidonamide]
- transport into cells (substrate translocation, in words) (anandamide transporter [5]): effectively transported into cells
- competition with [3H]anandamide for transport / uptake inhibition (in words) (anandamide transporter [3]): compete with anandamide for uptake

Compound: Cc1c(C2(c3cc(Br)c(O)c(Br)c3C)OS(=O)(=O)c3ccccc32)cc(Br)c(O)c1Br [bromcresol green]
- IC50 (anandamide transporter [6]): 4 µM
- mode of inhibition of [3H]anandamide accumulation (anandamide transporter [4]): noncompetitively
- IC50 (anandamide transporter [4]; astrocytes): 12 µM
- effect on binding of [3H]WIN-55212-2 [7]: no significant effect
- effect on FAAH activity [8]: no significant effect
- cAMP, % of forskolin alone ([2]; 10 μM inhibitor in the presence of WIN-55212-2 1 nM, n=3): 92.9±2.3%
- enhancement of the anandamide response on cAMP (in words) ([2]; anandamide 0.3 μM, inhibitors 10 μM, SR-141716-A 1 μM): less effective
- cAMP, % of forskolin alone ([2]; inhibitor in the presence of glutamate 3 μM, n=3): 84.4±3%

Compound: CCCCCCCC/C=C\CCCCCCCC(=O)NCCO [drawing 6]
- IC50 (anandamide transporter [1]): 10.5 ± 1.2 µM

Compound: CCCCCC=CCC=CCC=CCC=CCCCC(=O)NC(C)CO (centres unmarked) [drawing 12]
- IC50 (anandamide transporter [1]): 37.7 ± 0.7 µM

Compound: CCCCCC=CCC=CCC=CCC=CCCCC(=O)NC(C)CO (centres unmarked) [drawing 13]
- IC50 (anandamide transporter [1]): 10.4 ± 1.2 µM

Compound: CCCCCC=CCC=CCC=CCC=CCCC(C)(C)C(=O)NCC(C)O (centres unmarked) [drawing 21]
- IC50 (anandamide transporter [1]): 33.2 ± 4.2 µM

Compound: CCCCCC=CCC=CCC=CCC=CCCC(C)(C)C(=O)NCC(C)O (centres unmarked) [drawing 22]
- IC50 (anandamide transporter [1]): 16.5 ± 1 µM

Compound: N[C@@H](CCC(=O)O)C(=O)O [glutamate, reference compound]
- cAMP, % of forskolin alone [2]: 91.6±2%

Compound: CCCCCCCC/C=C\CCCCCCCC(=O)NCCO [oleylethanolamide]
- transport into cells (substrate translocation, in words) (anandamide transporter [5]): not transported at all

Compound: CCCCCCCCCCCCCCCC(=O)NCCO [palmitoyl ethanolamide, reference compound]
- transport into cells (substrate translocation, in words) (anandamide transporter [5]): not transported to any significant extent
- effect on [3H]anandamide accumulation (in words) (anandamide transporter [4]; cortical astrocytes, WIN-55212-2 1 μM, SR-141716-A 10 μM): not

Compound: cis-eicosadienoylethanolamide
- transport into cells (substrate translocation, in words) (anandamide transporter [5]): transported very slowly

Compound: cis-eicosaenoylethanoladide
- transport into cells (substrate translocation, in words) (anandamide transporter [5]): not transported at all

Compound: cis-eicosatrienoylethanolamide
- transport into cells (substrate translocation, in words) (anandamide transporter [5]): transported very slowly
